The values that follow are results of earlier work, collected in PubChem BioAssay AID1259409 (Chemical Carcinogenesis Research Information System (CCRIS), 2018).

The subject of the data set is rodent chemically induced tumor inhibition, incidence and multiplicity. The data set can be described thus: CCRIS tumor inhibitor studies. The note with it: Carcinogen: 4-(METHYLNITROSAMINO)-1-(3-PYRIDYL)-1-BUTANONE, 64091-91-4, Dose [Inhibitor]: 0, Promoter: NONE USED. An excerpt:
The CCRIS database contains chemical records with carcinogenicity, mutagenicity, tumor promotion, and tumor inhibition test results. It was developed by the National Cancer Institute (NCI). Data are derived from studies cited in primary journals, current awareness tools, NCI reports, and other sources. Test results have been reviewed by experts in carcinogenesis and mutagenesis.
CCRIS provides historical information from the years 1985 - 2011. It is no longer updated.
This is an archive assay for CCRIS tumor inhibitor studies.

For `S=C=NCCc1ccccc1`, the “tumour outcome (control, treated, inhibition, significance)” value reads like this: (1 UMOL ONCE 2 HR PRIOR TO CARCINOGEN DOSE (STUDY DURATION: 16 WK), Route [Inhibitor]: GAVAGE, Species: MOUSE, Strain/Sex: STRAIN-A/FEMALE, Target Tissue: Type of Lesion: LUNG: ADENOMA, Dose [Carcinogen]: 10 UMOL IN 0.1 ML SALINE ONCE) 100%, 100%, 0%, not significant; (1 UMOL/G DIET FOR 15 WK BEGINNING 1 WK POST CARCINOGEN DOSE (STUDY DURATION: 16 WK), Route [Inhibitor]: ORAL, Species: MOUSE, Strain/Sex: STRAIN-A/FEMALE, Target Tissue: Type of Lesion: LUNG: ADENOMA, Dose [Carcinogen]: 10 UMOL ONCE) 100%, 100%, 0%, not significant; (3 UMOL/G DIET FOR 15 WK BEGINNING 1 WK POST CARCINOGEN DOSE (STUDY DURATION: 16 WK), Route [Inhibitor]: ORAL, Species: MOUSE, Strain/Sex: STRAIN-A/FEMALE, Target Tissue: Type of Lesion: LUNG: ADENOMA, Dose [Carcinogen]: 10 UMOL ONCE) 100%, 100%, 0%, not significant; (3 UMOL/G DIET FOR 21 WK BEGINNING 1 WK PRIOR TO FIRST CARCINOGEN DOSE (STUDY DURATION: 104 WK), Route [Inhibitor]: ORAL, Species: RAT, Strain/Sex: F344/MALE, Target Tissue: Type of Lesion: LIVER: ADENOMA, Dose [Carcinogen]: 1.76 MG/KG 3/WK FOR 20 WK) 12/40 (30%), 9/40 (23%), 23%, not calculated; (3 UMOL/G DIET FOR 21 WK BEGINNING 1 WK PRIOR TO FIRST CARCINOGEN DOSE (STUDY DURATION: 104 WK), Route [Inhibitor]: ORAL, Species: RAT, Strain/Sex: F344/MALE, Target Tissue: Type of Lesion: LIVER: CARCINOMA, Dose [Carcinogen]: 1.76 MG/KG 3/WK FOR 20 WK) 3/40 (8%), 5/40 (13%), -63%, not calculated; (3 UMOL/G DIET FOR 21 WK BEGINNING 1 WK PRIOR TO FIRST CARCINOGEN DOSE (STUDY DURATION: 104 WK), Route [Inhibitor]: ORAL, Species: RAT, Strain/Sex: F344/MALE, Target Tissue: Type of Lesion: LUNG: ADENOMA, Dose [Carcinogen]: 1.76 MG/KG 3/WK FOR 20 WK) 8/40 (20%), 5/40 (13%), 35%, not calculated. The “tumour outcome (control, treated, inhibition, significance)” value is, setting by setting: (3 UMOL/G DIET FOR 21 WK BEGINNING 1 WK PRIOR TO FIRST CARCINOGEN DOSE (STUDY DURATION: 104 WK), Route [Inhibitor]: ORAL, Species: RAT, Strain/Sex: F344/MALE, Target Tissue: Type of Lesion: LUNG: CARCINOMA, Dose [Carcinogen]: 1.76 MG/KG 3/WK FOR 20 WK) 24/40 (60%), 12/40 (30%), 50%, not calculated; (3 UMOL/G DIET FOR 21 WK BEGINNING 1 WK PRIOR TO FIRST CARCINOGEN DOSE (STUDY DURATION: 104 WK), Route [Inhibitor]: ORAL, Species: RAT, Strain/Sex: F344/MALE, Target Tissue: Type of Lesion: NASAL CAVITY: BENIGN TUMOR, Dose [Carcinogen]: 1.76 MG/KG 3/WK FOR 20 WK) 8/40 (20%), 6/40 (15%), 25%, not calculated; (3 UMOL/G DIET FOR 21 WK BEGINNING 1 WK PRIOR TO FIRST CARCINOGEN DOSE (STUDY DURATION: 104 WK), Route [Inhibitor]: ORAL, Species: RAT, Strain/Sex: F344/MALE, Target Tissue: Type of Lesion: NASAL CAVITY: SQUAMOUS CELL CARCINOMA, Dose [Carcinogen]: 1.76 MG/KG 3/WK FOR 20 WK) 3/40 (8%), 7/40 (3%), 63%, not calculated; (3 UMOL/G OF DIET FOR 112 WK BEGINNING 1 WK PRIOR TO CARCINOGEN TREATMENT (STUDY DURATION: 112 WK), Route [Inhibitor]: ORAL, Species: RAT, Strain/Sex: F344/MALE, Target Tissue: Type of Lesion: HEMATOPOIETIC SYSTEM: LEUKEMIA OR LYMPHOMA, Dose [Carcinogen]: 2 PPM IN DRINKING WATER FOR 111 WK) 26/56 (46%), 28/59 (47%), -2%, not significant; (3 UMOL/G OF DIET FOR 112 WK BEGINNING 1 WK PRIOR TO CARCINOGEN TREATMENT (STUDY DURATION: 112 WK), Route [Inhibitor]: ORAL, Species: RAT, Strain/Sex: F344/MALE, Target Tissue: Type of Lesion: LIVER: ADENOMA OR CARCINOMA, Dose [Carcinogen]: 2 PPM IN DRINKING WATER FOR 111 WK) 5/55 (9%), 2/56 (4%), 56%, not significant; (3 UMOL/G OF DIET FOR 112 WK BEGINNING 1 WK PRIOR TO CARCINOGEN TREATMENT (STUDY DURATION: 112 WK), Route [Inhibitor]: ORAL, Species: RAT, Strain/Sex: F344/MALE, Target Tissue: Type of Lesion: LUNG: ADENOCARCINOMA, Dose [Carcinogen]: 2 PPM IN DRINKING WATER FOR 111 WK) 23/56 (41%), 1/59 (2%), 95%, p=0.00001. In addition, the “tumour outcome (control, treated, inhibition, significance)” value is, setting by setting: (3 UMOL/G OF DIET FOR 112 WK BEGINNING 1 WK PRIOR TO CARCINOGEN TREATMENT (STUDY DURATION: 112 WK), Route [Inhibitor]: ORAL, Species: RAT, Strain/Sex: F344/MALE, Target Tissue: Type of Lesion: LUNG: ADENOMA, Dose [Carcinogen]: 2 PPM IN DRINKING WATER FOR 111 WK) 16/56 (29%), 2/59 (3%), 90%, p=0.0002; (3 UMOL/G OF DIET FOR 112 WK BEGINNING 1 WK PRIOR TO CARCINOGEN TREATMENT (STUDY DURATION: 112 WK), Route [Inhibitor]: ORAL, Species: RAT, Strain/Sex: F344/MALE, Target Tissue: Type of Lesion: NASAL CAVITY: PAPILLOMA OR CARCINOMA, Dose [Carcinogen]: 2 PPM IN DRINKING WATER FOR 111 WK) 1/48 (2%), 0/53 (0%), 100%, not significant; (3 UMOL/G OF DIET FOR 112 WK BEGINNING 1 WK PRIOR TO CARCINOGEN TREATMENT (STUDY DURATION: 112 WK), Route [Inhibitor]: ORAL, Species: RAT, Strain/Sex: F344/MALE, Target Tissue: Type of Lesion: PANCREAS (ENDOCRINE): BENIGN TUMOR, Dose [Carcinogen]: 2 PPM IN DRINKING WATER FOR 111 WK) 5/52 (10%), 7/59 (12%), -20%, not significant; (3 UMOL/G OF DIET FOR 112 WK BEGINNING 1 WK PRIOR TO CARCINOGEN TREATMENT (STUDY DURATION: 112 WK), Route [Inhibitor]: ORAL, Species: RAT, Strain/Sex: F344/MALE, Target Tissue: Type of Lesion: PANCREAS (EXOCRINE): BENIGN TUMOR, Dose [Carcinogen]: 2 PPM IN DRINKING WATER FOR 111 WK) 1/52 (2%), 8/59 (14%), -600%, p=0.025.
